Experimental data reported in ChEMBL document CHEMBL4673175, “An epigrammatic status of the azole-based antimalarial drugs” (RSC Med Chem, 2020).

What was measured:
Plasmodium falciparum [1] = experiment: Antiplasmodial activity against Plasmodium falciparum IPC4912 by whole-cell SYBR Green I based assay; format: functional, organism-based
Plasmodium falciparum [2] = experiment: Antiplasmodial activity against chloroquine-sensitive/mefloquine resistant early ring stage Plasmodium falciparum 3D7 by whole-cell SYBR Green I based assay; format: functional, organism-based
Plasmodium falciparum [3] = experiment: Antiplasmodial activity against chloroquine-resistant/mefloquine resistant early ring stage Plasmodium falciparum Dd2 by whole-cell SYBR Green I based assay; format: functional, organism-based
Plasmodium falciparum [4] = experiment: Antiplasmodial activity against Plasmodium falciparum IPC5202 by whole-cell SYBR Green I based assay; format: functional, organism-based
Plasmodium falciparum [5] = experiment: Antimalarial activity against chloroquine-resistant ring-stage Plasmodium falciparum W2 infected in human erythrocytes by HRP2 assay; format: functional, organism-based
Plasmodium falciparum [6] = experiment: Antimalarial activity against chloroquine resistant Plasmodium falciparum incubated for 24 to 48 hrs by Giemsa staining based assay; format: functional, organism-based
Plasmodium falciparum [7] = experiment: Antimalarial activity against chloroquine sensitive Plasmodium falciparum incubated for 24 to 48 hrs by Giemsa staining based assay; format: functional, organism-based
[8] = system: Falcipain-2 (Plasmodium falciparum); experiment: Inhibition of Plasmodium falciparum falcipain-2 in enzyme assay
Plasmodium falciparum [9] = experiment: Antimalarial activity against Plasmodium falciparum assessed as reduction in [3H]-hypoxanthine incorporation into DNA incubated for 36 hrs by beta counter method; format: functional, organism-based
Plasmodium berghei [10] = experiment: Antimalarial activity against Plasmodium berghei ANKA infected in Swiss albino mouse assessed as parasitemia suppression at 50 micromol/kg, po administered for 4 days and measured at 24 hrs post-last dose by Giemsa staining based microscopic method relative to control; format: functional; settings: dose 50 µmol/kg; time 4 day
Plasmodium falciparum [11] = experiment: Antimalarial activity against chloroquine resistant Plasmodium falciparum RKL9 assessed as reduction in schizont maturation incubated for 24 hrs by Giemsa staining based assay; format: functional, organism-based; settings: RKL9, 24 h
Plasmodium falciparum [12] = experiment: Antimalarial activity against chloroquine sensitive Plasmodium falciparum 3D7 assessed as reduction in schizont maturation incubated for 24 hrs by Giemsa staining based assay; format: functional, organism-based; settings: 3D7, 24 h
Plasmodium falciparum [13] = experiment: Antiplasmodial activity against ring stage Plasmodium falciparum incubated for 72 hrs by SYBR Green I based assay; format: functional, organism-based
Plasmodium falciparum [14] = experiment: Antimalarial activity against chloroquine sensitive Plasmodium falciparum 3D7 incubated for 72 hrs by JSB1/JSB2 staining based assay; format: functional, organism-based; settings: 3D7, 72 h
Plasmodium berghei [15] = experiment: Antimalarial activity against Plasmodium berghei ANKA infected in Balb-C mouse assessed as mouse survival time at 10 mg/kg, ip administered once per day for 4 consecutive days (reference value: 8.20 +/- 0.20 days); format: functional; settings: time 4 day
Hemozoin = experiment: Inhibition of beta-hematin formation at 5 to 100 mM incubated for 48 hrs; settings: dose 5-100 mM
Plasmodium berghei [16] = experiment: Antimalarial activity against Plasmodium berghei ANKA infected in Balb-C mouse assessed as parasitemia at 10 mg/kg, ip administered once daily for 4 consecutive days by Giemsa staining based assay relative to control; format: functional; settings: time 4 day
Plasmodium falciparum [17] = experiment: Antiplasmodial activity against chloroquine sensitive Plasmodium falciparum D10; format: functional, organism-based
Plasmodium falciparum [18] = experiment: Antiplasmodial activity against chloroquine resistant Plasmodium falciparum Dd2; format: functional, organism-based
Plasmodium falciparum [19] = experiment: Antimalarial activity against chloroquine sensitive Plasmodium falciparum; format: functional, organism-based
Plasmodium falciparum [20] = experiment: Antimalarial activity against chloroquine resistant Plasmodium falciparum; format: functional, organism-based
[21] = molecular target: T1, Enoyl-acyl-carrier protein reductase (Plasmodium falciparum, UniProt Q965D5); experiment: Inhibition of Plasmodium falciparum enoyl-ACP reductase using crotonoyl-CoA as substrate by UV-Vis spectrophotometric method
T1 sequence (Q965D5 whole entry): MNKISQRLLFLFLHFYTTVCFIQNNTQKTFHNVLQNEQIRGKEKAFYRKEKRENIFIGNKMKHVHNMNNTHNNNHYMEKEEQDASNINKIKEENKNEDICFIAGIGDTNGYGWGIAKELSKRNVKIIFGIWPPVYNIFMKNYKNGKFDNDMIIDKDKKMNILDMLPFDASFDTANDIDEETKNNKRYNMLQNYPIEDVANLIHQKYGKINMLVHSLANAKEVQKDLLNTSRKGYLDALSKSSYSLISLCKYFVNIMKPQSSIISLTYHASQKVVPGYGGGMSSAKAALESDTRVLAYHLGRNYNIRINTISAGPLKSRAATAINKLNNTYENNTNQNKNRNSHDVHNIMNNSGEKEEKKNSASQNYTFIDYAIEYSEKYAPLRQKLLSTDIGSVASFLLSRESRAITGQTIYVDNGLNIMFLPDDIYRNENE

SMILES: c1ccc(-n2nnnc2OCC2CCC3(CC2)OOC2(O3)C3CC4CC(C3)CC2C4)cc1 (stereo unspecified)
- IC50 (Plasmodium falciparum [1]): 0.3 nM
- IC50 (Plasmodium falciparum [2]): 0.3 nM
- IC50 (Plasmodium falciparum [3]): 0.3 nM
- IC50 (Plasmodium falciparum [4]): 0.3 nM

SMILES: FC(F)c1cn(-c2ccnc3cc(Cl)ccc23)nn1
- IC50 (Plasmodium falciparum [5]): 1400 nM

SMILES: CC(C)(C)c1nc(CCN)c[nH]1
- IC50 (Plasmodium falciparum [6]): 10000 nM
- IC50 (Plasmodium falciparum [7]): 10000 nM

SMILES: COc1cccc(/C=C(/C#N)c2nc3ccccc3[nH]2)c1
- IC50 [8]: 690 nM

SMILES: NCCc1cncn1Cc1ccccc1
- IC50 (Plasmodium falciparum [6]): 10000 nM
- IC50 (Plasmodium falciparum [7]): 10000 nM

SMILES: COc1ccccc1Nc1n[nH]c(N)c1C#N
- IC50 (Plasmodium falciparum [9]): 140 nM

SMILES: Cc1ccc(-n2cc(C(=O)O)c(-c3ccccc3)n2)cc1
- Activity (Plasmodium berghei [10]): 83%
- IC50 (Plasmodium falciparum [11]): 33 nM

SMILES: CC(C)(C)c1nc(CC(N)C(=O)O)c[nH]1 (stereo unspecified)
- IC50 (Plasmodium falciparum [6]): 10000 nM
- IC50 (Plasmodium falciparum [7]): 10000 nM

SMILES: CC(C)n1cncc1CC(N)C(=O)O (stereo unspecified)
- IC50 (Plasmodium falciparum [6]): 10000 nM
- IC50 (Plasmodium falciparum [7]): 10000 nM

SMILES: Cc1ccc(-n2cc(C=O)c(-c3ccccc3)n2)cc1
- Activity (Plasmodium berghei [10]): 83%
- IC50 (Plasmodium falciparum [11]): 33 nM

SMILES: CCOC(=O)C1=CNC(C)=C(C(=O)OCC)C1c1ccc(OCC(=O)N/N=C/c2cn(-c3ccccc3)nc2-c2ccccc2)cc1 (stereo unspecified)
- IC50 (Plasmodium falciparum [12]): 4.4 nM

SMILES: CCOC(=O)c1sc(N/N=C(\C)c2ccccn2)nc1C
- IC50 (Plasmodium falciparum [13]): 725 nM

SMILES: CCOC(=O)c1cn(-c2ccnc3cc(Cl)ccc23)nn1
- IC50 (Plasmodium falciparum [5]): 1400 nM

SMILES: O=C(O)c1cn(-c2ccc(Cl)cc2)nc1-c1ccccc1
- Activity (Plasmodium berghei [10]): 83%
- IC50 (Plasmodium falciparum [11]): 33 nM

SMILES: CC(C)c1nc(CC(N)C(=O)O)c[nH]1 (stereo unspecified)
- IC50 (Plasmodium falciparum [6]): 10000 nM
- IC50 (Plasmodium falciparum [7]): 10000 nM

SMILES: NC(=S)N1N=C(c2ccc(N)cc2)CC1c1cn(-c2ccc(Cl)cc2)nc1-c1ccccc1 (stereo unspecified)
- IC50 (Plasmodium falciparum [14]): < 5000 nM

SMILES: Cc1ccc(NC(=O)c2ccc3[nH]c(-c4ccc([N+](=O)[O-])o4)nc3c2)c(C)c1
- Time (Plasmodium berghei [15]): 20.2 days
- inhibition (Hemozoin): < 98%
- Activity (Plasmodium berghei [16]): 3.05%

SMILES: CC(C)c1nc(CCN)c[nH]1
- IC50 (Plasmodium falciparum [6]): 10000 nM
- IC50 (Plasmodium falciparum [7]): 10000 nM

SMILES: Cc1ccc(-c2cn(CC3CN3Cc3ccccc3)nn2)cc1 (stereo unspecified)
- IC50 (Plasmodium falciparum [17]): ≤ 25000 nM
- IC50 (Plasmodium falciparum [18]): ≤ 25000 nM

SMILES: COC(=O)c1c(Nc2ccccc2)n[nH]c1N
- IC50 (Plasmodium falciparum [9]): 140 nM

SMILES: Cn1nnnc1NCC1CCC2(CC1)OOC1(OO2)C2CC3CC(C2)CC1C3 (stereo unspecified)
- IC50 (Plasmodium falciparum [1]): 0.3 nM
- IC50 (Plasmodium falciparum [2]): 0.3 nM
- IC50 (Plasmodium falciparum [3]): 0.3 nM
- IC50 (Plasmodium falciparum [4]): 0.3 nM

SMILES: Clc1ccc2c(-n3cc(C4CC4)nn3)ccnc2c1
- IC50 (Plasmodium falciparum [5]): 1400 nM

SMILES: CCNCC(Cn1cc(-c2ccccc2)nn1)NCc1ccccc1 (stereo unspecified)
- IC50 (Plasmodium falciparum [17]): ≤ 25000 nM

SMILES: O=[N+]([O-])c1ccc(N/N=C/c2cn(-c3ccc(Cl)cc3)nc2-c2ccccc2)c([N+](=O)[O-])c1
- IC50 (Plasmodium falciparum [11]): 33 nM

SMILES: COc1ccc(Nc2n[nH]c(N)c2C#N)cc1
- IC50 (Plasmodium falciparum [9]): 140 nM

SMILES: Cc1ccc(-n2cc(/C=N/Nc3ccncc3)c(-c3ccccc3)n2)cc1
- IC50 (Plasmodium falciparum [11]): 33 nM

SMILES: COc1ccc(C2=NN(C(N)=S)C(c3cn(-c4ccc(OC)cc4)nc3-c3ccccc3)C2)cc1 (stereo unspecified)
- IC50 (Plasmodium falciparum [14]): < 5000 nM

SMILES: COc1cccc(Nc2n[nH]c(N)c2C#N)c1
- IC50 (Plasmodium falciparum [9]): 140 nM

SMILES: Clc1ccccc1C(c1ccccc1)(c1ccccc1)n1ccnc1 [CLOTRIMAZOLE]
- IC50 (Plasmodium falciparum [19]): 200 nM
- IC50 (Plasmodium falciparum [20]): 200 nM

SMILES: COc1cc(/C=C(/C#N)c2nc3ccccc3[nH]2)cc(OC)c1
- IC50 [8]: 690 nM

SMILES: Clc1ccc(COC(Cn2ccnc2)c2ccc(Cl)cc2Cl)c(Cl)c1 (stereo unspecified) [MICONAZOLE]
- IC50 (Plasmodium falciparum [19]): 200 nM
- IC50 (Plasmodium falciparum [20]): 200 nM

SMILES: Cc1ccc(-c2nn(-c3nccc(C(F)(F)F)n3)cc2C=O)cc1
- IC50 [21]: 30000 nM

SMILES: COc1ccc(CN2CC2Cn2cc(-c3ccccc3)nn2)cc1 (stereo unspecified)
- IC50 (Plasmodium falciparum [17]): ≤ 25000 nM

SMILES: N#Cc1c(Nc2ccccc2)n[nH]c1N
- IC50 (Plasmodium falciparum [9]): 140 nM

SMILES: CC(C)(C)n1c(CC(N)C(=O)O)cnc1Cc1ccccc1 (stereo unspecified)
- IC50 (Plasmodium falciparum [6]): 10000 nM
- IC50 (Plasmodium falciparum [7]): 10000 nM

SMILES: C[C@@H]1CC[C@H]2[C@@H](C)C(=O)O[C@@H]3O[C@@]4(C)CC[C@@H]1[C@]32OO4 [ARTEMISININ]
- IC50 (Plasmodium falciparum [12]): 6 nM

SMILES: COc1ccc(-n2cc(C3CC(c4ccc(N)cc4)=NN3C(N)=S)c(-c3ccccc3)n2)cc1 (stereo unspecified)
- IC50 (Plasmodium falciparum [14]): < 5000 nM

SMILES: Clc1ccccc1CN1CC1Cn1cc(-c2ccccc2)nn1 (stereo unspecified)
- IC50 (Plasmodium falciparum [18]): ≤ 25000 nM

SMILES: O=Cc1cn(-c2ccc(Cl)cc2)nc1-c1ccccc1
- Activity (Plasmodium berghei [10]): 83%
- IC50 (Plasmodium falciparum [11]): 33 nM

SMILES: O=[N+]([O-])c1ccc(-c2cc(C(F)(F)F)nn2-c2ccccc2)cc1
- IC50 [21]: 50000 nM

SMILES: CCNCC(Cn1cc(-c2ccccc2)nn1)NCc1ccc(Cl)cc1 (stereo unspecified)
- IC50 (Plasmodium falciparum [17]): ≤ 25000 nM

SMILES: CC(C)n1cncc1CCN
- IC50 (Plasmodium falciparum [6]): 10000 nM
- IC50 (Plasmodium falciparum [7]): 10000 nM

SMILES: NC(=S)N1N=C(c2ccc(N)cc2)CC1c1cn(-c2ccccc2)nc1-c1ccccc1 (stereo unspecified)
- IC50 (Plasmodium falciparum [14]): < 5000 nM

SMILES: COC(=O)c1c(Nc2cccc(OC)c2)n[nH]c1N
- IC50 (Plasmodium falciparum [9]): 140 nM

SMILES: Clc1ccc2c(-n3cc(-c4ccccc4)nn3)ccnc2c1
- IC50 (Plasmodium falciparum [5]): 1400 nM

SMILES: COc1ccc(/C=C(\C#N)c2nc3ccccc3[nH]2)cc1O
- IC50 [8]: 690 nM

SMILES: CC(C)n1c(CC(N)C(=O)O)cnc1Cc1ccccc1 (stereo unspecified)
- IC50 (Plasmodium falciparum [6]): 10000 nM
- IC50 (Plasmodium falciparum [7]): 10000 nM

SMILES: Cc1ccc(-n2cc(C3CC(c4ccc(N)cc4)=NN3C(N)=S)c(-c3ccccc3)n2)cc1 (stereo unspecified)
- IC50 (Plasmodium falciparum [14]): < 5000 nM

SMILES: Cn1nnnc1NCC1CCC2(CC1)OOC1(O2)C2CC3CC(C2)CC1C3 (stereo unspecified)
- IC50 (Plasmodium falciparum [1]): 0.3 nM
- IC50 (Plasmodium falciparum [2]): 0.3 nM
- IC50 (Plasmodium falciparum [3]): 0.3 nM
- IC50 (Plasmodium falciparum [4]): 0.3 nM

SMILES: CC(=O)N1CCN(c2ccc(OCC3COC(Cn4ccnc4)(c4ccc(Cl)cc4Cl)O3)cc2)CC1 (stereo unspecified) [KETOCONAZOLE]
- IC50 (Plasmodium falciparum [19]): 200 nM
- IC50 (Plasmodium falciparum [20]): 200 nM

SMILES: CNCC(Cn1cc(-c2ccccc2)nn1)NCc1ccccc1Cl (stereo unspecified)
- IC50 (Plasmodium falciparum [17]): ≤ 25000 nM
- IC50 (Plasmodium falciparum [18]): ≤ 25000 nM

SMILES: Clc1ccc2c(-n3cc(OC4CCCCO4)nn3)ccnc2c1 (stereo unspecified)
- IC50 (Plasmodium falciparum [5]): 1400 nM
